Reference: patent US20210267996A1, “Compounds for inhibition of inflammation” (Children`s Medical Center Corporation, priority 2018, published 2021)
Entries after “also recorded” stand apart in the source; their conditions may differ. Counter-ions that a name gives are not always drawn. Like-named read-outs stand apart in the source and are kept apart here.

How the values were obtained:
Human GSDMD = target: T1, Human GSDMD (Homo sapiens, UniProt P57764); experiment: Liposome leakage assay (Tb3+/DPA), GSDMD plus caspase-11; assay type: biochemical
T1 construct: His6-MBP (N, cleaved yes); made in house; host or cells: E. coli BL21 (DE3) for GSDMD; Sf9 for caspase-11
T1 sequence (P57764 1-484): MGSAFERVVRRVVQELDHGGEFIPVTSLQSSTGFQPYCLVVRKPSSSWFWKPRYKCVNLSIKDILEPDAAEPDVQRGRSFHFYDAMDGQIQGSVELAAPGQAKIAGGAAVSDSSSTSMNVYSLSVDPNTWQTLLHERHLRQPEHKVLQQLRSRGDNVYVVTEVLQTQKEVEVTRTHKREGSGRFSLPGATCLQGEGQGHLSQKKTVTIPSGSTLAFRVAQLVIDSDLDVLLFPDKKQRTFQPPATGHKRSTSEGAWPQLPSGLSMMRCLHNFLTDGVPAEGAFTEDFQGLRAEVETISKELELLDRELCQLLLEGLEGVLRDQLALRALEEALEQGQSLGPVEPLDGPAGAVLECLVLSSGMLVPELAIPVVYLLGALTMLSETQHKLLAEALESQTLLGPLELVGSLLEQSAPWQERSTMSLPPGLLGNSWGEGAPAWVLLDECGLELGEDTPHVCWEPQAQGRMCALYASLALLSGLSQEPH
Protocol: The lipid mixture was suspended in 1 mL Buffer A (20 mM HEPES, 150 mM NaCl, 50 mM sodium citrate, and 15 mM TbCl3) for 3 min. The suspension was pushed through 100 nm Whatman® Nuclepore™ Track-Etched Membrane 30 times to obtain homogeneous liposomes. The filtered suspension was purified by size exclusion column (Superose 6, 10/300 GL) in Buffer B (20 mM HEPES, 150 mM NaCl) to remove TbCl3 outside liposomes. […] The liposomes are diluted to 50 μM with Buffer C (20 mM HEPES, 150 mM NaCl and 50 μM DPA) for use in high-throughput screening.

mouse iBMDMs [1] = experiment: Non-canonical inflammasome pyroptosis, iBMDMs with LPS electroporation; assay type: cell-based
Protocol: Cell lines and treatments: THP-1 cells and HEK293T cells (obtained from ATCC) were grown in RPMI with 10% heat-inactivated fetal bovine serum, supplemented with 100 U/ml penicillin G, 100 μg/ml streptomycin sulfate, 6 mM HEPES, 1.6 mM L-glutamine, and 50 μM 2ME. C57BL/6 mouse iBMDM cells were kindly provided by J. Kagan (Boston Children's Hospital) and cultured in DMEM with the same supplements. Cells were verified to be free of mycoplasma contamination. Transient transfection of HEK293T cells was performed using Lipofectamine 2000 (Invitrogen) according to the manufacturer's instructions. iBMDM cells were transfected by nucleofection using the Amaxa Nucleofector kit (VPA-1009). […] To examine IκBα. phosphorylation and degradation as well as IL-1β induction, PMA-differentiated THP-1 cells were stimulated with LPS (1 μg/ml) for 0.5, 1 and 4 hrs, respectively. For noncanoical inflammasome activation, 1 million iBMDM cells were electroporated with 1 μg ultra LPS.
Cytotoxicity and cell viability assays: cell death and cell viability were determined by the lactate dehydrogenase release assay using the CytoTox 96 Non-Radioactive Cytotoxicity Assay kit (Promega) and by measuring ATP levels using the CellTiter-Glo Luminescent Cell Viability Assay (Promega), respectively, according to the manufacturer's instructions. Luminescence and absorbance were measured on a BioTek Synergy 2 plate reader.
In FIGS. 4, 6, and 8, PMA-differentiated LPS-primed human THP-1 were pre-treated with indicated concentrations of each compound for 1 h before adding nigericin or medium. The number of surviving cells was determined by CellTiter-Glo assay (FIGS. 4 and 6) and IL-1β in culture supernatants was assessed by ELISA (FIG. 8) 2 hrs later. In FIGS. 5, 7, and 9, mouse iBMDMs were pre-treated with each test compound for 1 hr before electroporation with PBS or LPS. The number of surviving cells was determined by CellTiter-Glo assay (FIGS. 5 and 7) and IL-1β in culture supernatants was assessed by ELISA (FIG. 9) 2.5 hrs later. In FIGS. 8 and 9, 40 μM concentration of test compounds were added.

THP-1 cells = experiment: Canonical inflammasome pyroptosis, LPS-primed THP-1 cells plus nigericin; assay type: cell-based, human; conditions: for inhibition of canonical inflammasome pyroptosis: THP-1, nigericin
Protocol: Cell viability assay. […] Primed THP-1 cells were pretreated with each test compound for 1 hr before addition of 20 μM nigericin or medium as control. The number of surviving cells was determined by CellTiter-Glo assay 1.5 hrs later. The final percent cell viability was calculated using the formula [(luminescencetest compound−luminescencencenegative control)/(luminescencencepositive control−luminescencenegative control)]×100, where wells with only LPS were used as positive controls and wells treated with LPS and nigericin were used as negative controls.
In FIGS. 4, 6, and 8, PMA-differentiated LPS-primed human THP-1 were pre-treated with indicated concentrations of each compound for 1 h before adding nigericin or medium. The number of surviving cells was determined by CellTiter-Glo assay (FIGS. 4 and 6) and IL-1β in culture supernatants was assessed by ELISA (FIG. 8) 2 hrs later. […] In FIGS. 8 and 9, 40 μM concentration of test compounds were added. […] Graphs show the mean±s.d. and data shown are representative of three independent experiments. **P<0.01.

HT-29 cells = experiment: Necroptosis induced by TNFα, SMAC mimetic and z-VAD-fmk; assay type: cell-based; conditions: SMAC mimetic
Description: Inhibition was shown by cell survival, assessed by CellTiter-Glo ATP luminescence, and membrane permeabilization, assessed by uptake of the membrane-impermeable dye SYTOX Green.

mouse iBMDMs [2] = experiment: Processing of caspase-1, GSDMD and IL-1β in iBMDMs (immunoblot); assay type: cell-based; conditions: 1 hr time point
Protocol: (§1) FIG. 97 contains a bar graph showing results of an experiment where LPS-primed THP-1 cells, after medium removal, were incubated with probe FAM-YVAD-FMK in FLICA assay buffer for another 0.5 hr before fluorescence reading. iBMDMs were pretreated with disulfiram, Bay 11-7082, necrosulfonamide (NSA) or z-VAD-fmk for 1 hr before treated or not with Nigericin for 0.5 hr. Whole cell lysates and culture supernatants were immunoblotted with the indicated antibodies.
as §1, with “FIG. 98” for “FIG. 97”, “for 1” for “for 0.5”
Canonical inflammasome assembly activates caspase-1, which cleaves pro-IL-1β and GSDMD, and the latter is needed to release processed IL-1β and to induce pyroptosis. To assess which steps in NLRP3-mediated inflammation were inhibited post ASC speck formation, LPS-primed THP-1 cells were treated with vehicle, 30 μM z-VAD-fmk or disulfiram 1 hour before adding nigericin, and cleavage and activation of caspase-1, GSDMD, and pro-IL-1β were analysed by immunoblot of whole cell lysates 30 min later and 1 hr later. Secretion of processed IL-1β was also assessed by immunoblot of culture supernatants. […] The 1 hr time point is relevant as the cell death and IL-1β release measurements used cells stimulated with nigericin for 1 and 2 hrs, respectively.

[3] = Table 2, leakage assay, read-out: IC50

S=C(SSC(=S)N(c1ccccc1)c1ccccc1)N(c1ccccc1)c1ccccc1 [C-23A5, Tetraphenylthiuram disulfide]
IC50 (Human GSDMD; [3]): 3740 ± 1060 nM

CN(C)C(=S)SSC(=S)N(C)C [C-23A1, tetramethylthiuram disulfide]
IC50 (Human GSDMD; [3]): 220 ± 10 nM

S=C(SSC(=S)N(Cc1ccccc1)Cc1ccccc1)N(Cc1ccccc1)Cc1ccccc1 [C-23A12, Tetrabenzylthiuram disulfide]
IC50 (Human GSDMD; [3]): 2930 ± 1070 nM

COc1ccc(-c2cc(=S)ss2)cc1 [C-22]
inhibition of non-canonical inflammasome pyroptosis (mouse iBMDMs [1]): Only C-23 blocked pyroptosis
inhibition of canonical inflammasome pyroptosis (THP-1 cells): Only C-23 blocked pyroptosis

CN1C(=O)C(Cc2c[nH]c3ccccc23)NC1=S (stereo not shown) [necrostatin-1]
necroptosis (HT-29 cells): blocked

S=C(SSC(=S)N1CCOCC1)N1CCOCC1 [C-23A7, di(4-morpholinyl)dithioperoxyanhydride]
IC50 (Human GSDMD; [3]): 250 ± 10 nM

CN(C(=S)SSC(=S)N(C)c1ccccc1)c1ccccc1 [C-23A11, dimethyldiphenylthiuram disulfide]
IC50 (Human GSDMD; [3]): 370 ± 10 nM

Cc1c(-c2cnccn2)ssc1=S [C-24]
inhibition of non-canonical inflammasome pyroptosis (mouse iBMDMs [1]): Only C-23 blocked pyroptosis
inhibition of canonical inflammasome pyroptosis (THP-1 cells): Only C-23 blocked pyroptosis

CCN(CC)C(=S)S [DTC, diethyldithiocarbamate]
effect of copper gluconate (Cu2+) on inhibition of liposome leakage (Human GSDMD; with Cu2+): only weakly increased
activity in cells in the presence of Cu2+ (THP-1 cells; with Cu2+): almost as active as C-23; also recorded: almost as active as disulfiram
effect of Cu2+ on protection of LPS-primed THP-1 cells from pyroptosis (THP-1 cells; with Cu2+): strongly promoted

S=C(SSC(=S)N1CCCC1)N1CCCC1 [C-23A10, pyrrolidine-1-carbothioic dithioperoxyanhydride]
IC50 (Human GSDMD; [3]): 260 ± 20 nM

COC(=O)/C=C/C(=O)OC [DMF, dimethyl fumarate]
activity against GSDMD (Human GSDMD; Cys-reactive comparison compounds): lack of activity

COc1nccnc1NS(=O)(=O)c1ccc(NC(=O)/C=C/c2ccc([N+](=O)[O-])s2)cc1 [necrosulfonamide]
necroptosis (HT-29 cells): blocked
processing of caspase-1, GSDMD and IL-1β (mouse iBMDMs [2]): still inhibited processing
times less active than disulfiram at inhibiting liposome leakage (Human GSDMD; GSDMD plus caspase-11): about 30 fold
IC50 (Human GSDMD; WT GSDMD, caspase-11-triggered, read-out: IC50 of liposome leakage): 9500 ± 430 nM

S=C(SSC(=S)N1CCCCC1)N1CCCCC1 [C-23A9, dicyclopentamethylenethiuram disulfide]
IC50 (Human GSDMD; [3]): 260 ± 3 nM

CN1CCN(C(=S)SSC(=S)N2CCN(C)CC2)CC1 [C-23A4, 4-Methylpiperazine-1-carbothioic dithioperoxyanhydride]
IC50 (Human GSDMD; [3]): 260 ± 10 nM

Cc1ccc(N(C)C(=S)SSC(=S)N(C)c2ccc(C)cc2)cc1 [C-23A6, N,N′-Dimethyl-N,N′-(4,4′-dimethyldiphenyl)thiuram disulfide]
IC50 (Human GSDMD; [3]): 350 ± 30 nM

CC(C)N(C(=S)SSC(=S)N(C(C)C)C(C)C)C(C)C [C-23A2, Tetraisopropylthiuram disulfide]
IC50 (Human GSDMD; [3]): 370 ± 10 nM

CN(C(=S)SSC(=S)N(C)c1ccncc1)c1ccncc1 [C-23A8, N,N′-Dimethyl-N,N′-di(4-pyridinyl)thiuram disulfide]
IC50 (Human GSDMD; [3]): 1250 ± 10 nM

CCCCN(CCCC)C(=S)SSC(=S)N(CCCC)CCCC [C-23A3, tetrabutylthiuram disulfide]
IC50 (Human GSDMD; [3]): 460 ± 80 nM
